Source: US9340493B2, “Hydroxamic acid derivatives useful as antibacterial agents” (Pfizer Inc., priority 2008, dated 2016)
≈ marks a conversion by molar mass, not a printed value.

Experiments:
Escherichia coli EC-1 = assay: MIC determination, E. coli EC-1; type: cell-based; conditions: EC1, EC-1: VOGEL, * = arithmetic mean of 2-6 MIC determinations, read-out: MIC (ug/mL) E. coli EC-1
Protocol: (§1) MIC determinations: The in vitro antibacterial activity of compounds described in the Examples was evaluated by minimum inhibitory concentration (MIC) testing according to Clinical and Laboratory Standards Institute (CLSI, formerly NCCLS) guidelines. See: Clinical and Laboratory Standards Institute. Methods for Dilution Antimicrobial Susceptibility Tests for Bacteria that Grow Aerobically; Approved Standard-Seventh Edition. CLSI document M7-A7 [ISBN 1-56238-587-9]. Clinical and Laboratory Standards Institute, 940 West Valley Road, Suite 1400, Wayne, Pa. 19087-1898 USA, 2006; also Clinical and Laboratory Standards Institute. Performance Standards for Antimicrobial Susceptibility Testing; Eighteenth Informational Supplement. CLSI document M100-S18 [ISBN1-56238-653-0]. Clinical and Laboratory Standards Institute.
(§2) The following bacterial strains were used:
Escherichia coli EC-1: VOGEL;

[1] = tested on: Acinetobacter baumanii/haemolyticus; assay: MIC determination, A. baumanii/haemolyticus; type: cell-based; conditions: Acinetobacter baumannii; multidrug-resistant clinical isolate; * = arithmetic mean of 2-6 MIC determinations; read-out: MIC (ug/mL) A. baumanii/haemolyticus
Protocol: as §1, §2
Acinetobacter baumanii/haemolyticus: Multidrug-resistant clinical isolate;

P. aeruginosa UI-18 = assay: MIC determination, P. aeruginosa UI-18; type: cell-based; conditions: Pseudomonas aeruginosa, UI18; wild-type; * = arithmetic mean of 2-6 MIC determinations; read-out: MIC (ug/mL) P. aeruginosa UI-18
Protocol: as §1, §2
P. aeruginosa UI-18: Wild-type;

Klebsiella pneumoniae = assay: MIC determination, K. pneumoniae; type: cell-based; conditions: ciprofloxacin-resistant, ESBL-expressing clinical isolate, * = arithmetic mean of 2-6 MIC determinations, read-out: MIC (ug/mL) K. pneumoniae
Protocol: as §1, §2
Klebsiella pneumoniae: Ciprofloxacin-resistant isolate, expresses extended-spectrum beta-lactamases (ESBL), clinical isolate;

Enterobacter aerogenes = assay: MIC determination, E. aerogenes; type: cell-based; conditions: Klebsiella aerogenes; quinolone-resistant, ESBL-expressing clinical isolate; * = arithmetic mean of 2-6 MIC determinations; read-out: MIC (ug/mL) E. aerogenes
Protocol: as §1, §2
Enterobacter aerogenes: Quinolone-resistant isolate, expresses extended-spectrum beta-lactamases (ESBL), clinical isolate;

P. aeruginosa PAO280 = assay: MIC determination, P. aeruginosa PAO280; type: cell-based; conditions: Pseudomonas aeruginosa, PAO280, read-out: MIC (ug/mL) P. aeruginosa PAO280
Protocol: as §1, §2
Pseudomonas aeruginosa PA0280: lacks efflux pumps MexAB-oprM, MexXY and MexZ

[2] = tested on: Staphylococcus aureus ATCC 29213; assay: MIC determination, S. aureus ATCC 29213; type: cell-based; conditions: ATCC29213, CLSI quality control reference strain, * = arithmetic mean of 2-6 MIC determinations, read-out: MIC (ug/mL) S. aureus ATCC 29213
Protocol: as §1, §2
Staphylococcus aureus ATCC 29213: CLSI quality control reference strain; and […]

[3] = target: T1, Pseudomonas aeruginosa LpxC enzyme (Pseudomonas aeruginosa, UniProt P47205); assay: IC50 assay, LpxC enzyme from P. aeruginosa; type: biochemical; conditions: 0.5 nM enzyme, 25° C., pH 8.0, 20 min; ** = average of 2-8 assays
T1 construct: made in house; host or cells: E. coli
T1 sequence (P47205 1-303): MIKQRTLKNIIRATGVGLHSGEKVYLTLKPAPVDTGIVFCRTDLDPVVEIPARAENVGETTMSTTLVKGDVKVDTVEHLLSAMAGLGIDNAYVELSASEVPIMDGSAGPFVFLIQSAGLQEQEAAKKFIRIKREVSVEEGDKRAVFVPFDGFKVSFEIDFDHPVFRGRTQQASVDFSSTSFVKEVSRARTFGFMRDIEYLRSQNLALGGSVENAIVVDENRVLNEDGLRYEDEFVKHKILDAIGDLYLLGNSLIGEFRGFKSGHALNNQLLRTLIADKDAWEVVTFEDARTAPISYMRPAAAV
Protocol: IC50 assay, LpxC enzyme from P. aeruginosa: IC50 determination in the LpxC enzyme assay was carried out in a similar manner to that described by S. A. Hyland et al., J. Bacteriology 1997, 179, 2029-2037. [See also T. Kline et al., J. Medicinal Chemistry 2002, 45, 3112-3129.] Briefly, Pseudomonas aeruginosa LpxC enzyme (0.5 nM) purified from E. coli-overexpressing bacteria was incubated at 25° C. in a final volume of 25 ul containing 0.5 uM UDP-3-O—(R-3-hydroxydecanoyl)-N—[^3H-acetyl]glucosamine (B. D. Maxwell and J. C. Bronstein, J. Labeled Compounds and Radiopharmaceuticals 2005, 48, 1049-1054), 1 mg/ml BSA, and 50 mM sodium phosphate buffer, pH 8.0 in the presence and absence of inhibitor compound. At the end of 20 min, 90 ul of a pre-mixed 3% suspension of activated charcoal in 100 mM sodium acetate, pH 7.5, was added to stop the enzyme reaction. The contents of the well were transferred to a filter plate and filtered, and an aliquot of the filtrate was quantitated by liquid scintillation spectrometry. A no-enzyme control was subtracted in order to eliminate background counts.

Row | SMILES | MIC (Escherichia coli EC-1) [µg/mL] | MIC [1] [µg/mL] | MIC (P. aeruginosa UI-18) [µg/mL] | MIC (Klebsiella pneumoniae) [µg/mL] | MIC (Enterobacter aerogenes) [µg/mL] | MIC (P. aeruginosa PAO280) [µg/mL] | MIC [2] [µg/mL] | IC50 [3] [µM]
1 | CCCc1ccc(-c2ccc(CO[C@](C)(C(=O)NO)[C@@H](O)c3cc(C)on3)cc2)cc1 [Example 30, (2S,3S)-N,3-dihydroxy-2-methyl-3-(5-methylisoxazol-3-yl)-2-[(4′-propylbiphenyl-4-yl)methoxy]propanamide] | 2 (≈ 4.71 µM) | 2 (≈ 4.71 µM) | 4 (≈ 9.42 µM) | 4 (≈ 9.42 µM) | 16 (≈ 37.7 µM) | 1 (≈ 2.36 µM) | 32 (≈ 75.4 µM) | 0.000762
2 | C[C@@](OCc1ccc(-c2ccccc2)cc1)(C(=O)NO)[C@@H](O)c1ccon1 [Example 31, (2S,3S)-2-(biphenyl-4-ylmethoxy)-N,3-dihydroxy-3-isoxazol-3-yl-2-methylpropanamide] | 16 (≈ 43.4 µM) | 32 (≈ 86.9 µM) | 6 (≈ 16.3 µM) | 48 (≈ 130 µM) | > 64 | 0.06 (≈ 0.163 µM) | > 64 | 0.000406
3 | Cc1ccc(-c2ccc(CO[C@](C)(C(=O)NO)[C@@H](O)c3cc(C)on3)cc2)nc1 [Example 32, (2S,3S)-N,3-dihydroxy-2-methyl-3-(5-methylisoxazol-3-yl)-2-{[4-(5-methylpyridin-2-yl)benzyl]oxy}propanamide] | 32 (≈ 80.5 µM) | > 64 | 8 (≈ 20.1 µM) | 64 (≈ 161 µM) | > 64 | 0.06 (≈ 0.151 µM) | > 64 | 0.000286
4 | C[C@@](OCc1ccc(-c2ccccc2)cc1)(C(=O)NO)[C@@H](O)c1ncco1 [Example 33, (2S,3R)-2-(biphenyl-4-ylmethoxy)-N,3-dihydroxy-2-methyl-3-(1,3-oxazol-2-yl)propanamide] | 64 (≈ 174 µM) | > 64 | 8 (≈ 21.7 µM) | > 64 | > 64 | 0.25 (≈ 0.679 µM) | > 64 | 0.00323
5 | C[C@@](OCc1ccc(-c2ccccc2)cc1)(C(=O)NO)[C@@H](O)c1cc(CO)on1 [Example 34, (2S,3S)-2-(biphenyl-4-ylmethoxy)-N,3-dihydroxy-3-[5-(hydroxymethyl)isoxazol-3-yl]-2-methylpropanamide] | 28 (≈ 70.3 µM) | 64 (≈ 161 µM) | 1.25 (≈ 3.14 µM) | 64 (≈ 161 µM) | > 64 | 0.023 (≈ 0.0577 µM) | > 64 | 0.000579
6 | C[C@@](OCc1ccc(-c2ccc(F)cc2)cc1)(C(=O)NO)[C@@H](O)c1cc(CO)on1 [Example 35, (2S,3S)-2-[(4′-fluorobiphenyl-4-yl)methoxy]-N,3-dihydroxy-3-[5-(hydroxymethyl)isoxazol-3-yl]-2-methylpropanamide] | 23 (≈ 55.2 µM) | 64 (≈ 154 µM) | 1 (≈ 2.4 µM) | 53 (≈ 127 µM) | > 64 | 0.03 (≈ 0.072 µM) | > 64 | 0.000695
7 | CCc1ccc(-c2ccc(CO[C@](C)(C(=O)NO)[C@@H](O)c3cc(CO)on3)cc2)cc1 [Example 36, (2S,3S)-2-[(4′-ethylbiphenyl-4-yl)methoxy]-N,3-dihydroxy-4-[5-(hydroxymethyl)isoxazol-3-yl]-2-methylpropanamide] | 4 (≈ 9.38 µM) | 32 (≈ 75 µM) | 1 (≈ 2.34 µM) | 16 (≈ 37.5 µM) | 64 (≈ 150 µM) | 0.03 (≈ 0.0703 µM) | 64 (≈ 150 µM) | 0.000244
